Results as given in US20250214977A1, “STAT6 INHIBITORS AND USES THEREOF” (Kymera Therapeutics, Inc., priority 2024, published 2025).

What follows are compounds tested on Phosphorylation of STAT6 in human A549 cells (assay: Phosphorylated STAT6 (pSTAT6) flow cytometry assay in human A549 cells). Conditions: listed as I-394, read-out: STAT6 IL4 pSTAT6 assay in A549 cells: Average IC50.
Type: cell-based
Excerpt: Example 3. Phosphorylated STAT6 (pSTAT6) Flow Cytometry Assay in Human A549 Cells
Phosphorylation of STAT6 in human A549 cells was quantitatively measured using flow cytometry technology.

| IC50 | Compound |
| --- | --- |
| > 100000 nM | CCC1CN(C)CC1c1cc(C2=CCCN(C(=O)CCn3ccnn3)C2)c(F)c2[nH]c(C(=O)N3CCN(c4ncc(F)cc4OC)CC3)cc12 (stereo not drawn) [Example I-1209, 1-[5-[4-(4-ethyl-1-methyl-pyrrolidin-3-yl)-7-fluoro-2-[4-(5-fluoro-3-methoxy-2-pyridyl)piperazine-1-carbonyl]-1H-indol-6-yl]-3,6-dihydro-2H-pyridin-1-yl]-3-(triazol-1-yl)propan-1-one] |

Same assay, conditions: read-out: STAT6 IL4 pSTAT6 assay in A549 cells: Average IC50

| Compound | IC50 |
| --- | --- |
| COc1cccnc1N1CCN(C(=O)c2cc3c(-c4ccc(OC)c5c4OCCO5)cc(C4=CCCN(C(=O)CCn5ccnn5)C4)c(F)c3[nH]2)CC1 [Example I-583] | > 100000 nM |
| (R)-5-(1-(2-formyl-1,2,3,4-tetrahydroisoquinoline-3-carbonyl)-1,2,5,6-tetrahydropyridin-3-yl)-7-(2-methoxyphenyl)-N,N-dimethylbenzofuran-2-carboxamide [Example I-804] | > 100000 nM |
| COc1ccncc1-c1cc(C2=CCCN(C(=O)CCn3ccnn3)C2)c(F)c2[nH]c(C(=O)N3Cc4cnn(C)c4C3)cc12 [Example I-496] | > 100000 nM |
| COc1ccccc1-c1cc(C2=CCCN(C(=O)CCn3ccnn3)C2)c(F)c2[nH]c(C(=O)N3CCN(c4ncccc4Oc4ccccc4)CC3)cc12 [Example I-334] | < 100 nM |
| COc1ccc(-c2cc(C3=CCCN(C(=O)CCn4ccnn4)C3)cc3cc(C(=O)N(C)C)oc23)c(C#N)c1 [Example I-854] | < 100 nM |
| COc1ccccc1-c1cc(C2=CCCN(C(=O)CCn3ccnn3)C2)c(F)c2[nH]c(C(=O)N3CCC4CC43)cc12 (stereo not drawn) [Example I-1011] | < 100 nM |
| COc1cc(F)c(F)cc1-c1cc(C2=CCCN(C(=O)CCn3ccnn3)C2)c(F)c2[nH]c(C(=O)N3CCN(c4ccccc4OC)CC3)cc12 [Example I-600] | < 100 nM |
| COc1cc(F)cnc1N1CCN(C(=O)c2cc3c(-c4ccc(C(=O)N5CCCC5)cc4F)cc(C4=CCCN(C(=O)CCn5ccnn5)C4)c(F)c3[nH]2)CC1 [Example I-1143] | < 100 nM |
| COc1cc(F)cnc1N1CCN(C(=O)c2cc3c(-c4cnn(Cc5ccccc5)c4)cc(C4=CCCN(C(=O)CCn5ccnn5)C4)c(F)c3[nH]2)CC1 [Example I-1115] | < 100 nM |
| COc1ccccc1-c1cc(C2=CCCN(C(=O)CCn3ccnn3)C2)c(F)c2[nH]c(CN3CCN(c4ncccc4OC)CC3=O)cc12 [Example I-1171] | 100 to 1000 nM |
| COc1ccccc1-c1cc(C2=CCCN(C(=O)CCn3ccnn3)C2)c(F)c2[nH]c(C(=O)N3CCN(c4ccnc5c4CC(=O)N5)CC3)cc12 [Example I-914] | < 100 nM |
| COc1ccncc1-c1cc(C2=CCCN(C(=O)CCn3ccnn3)C2)c(F)c2[nH]c(C(=O)N3CCN(c4ccc(C5CC5)cc4OC)CC3)cc12 [Example I-481] | < 100 nM |
| COc1ccccc1-c1cc(C2=CCCN(C(=O)CCn3ccnn3)C2)c(F)c2[nH]c(C(=O)N3CCN(c4ccc(O)cc4)CC3)cc12 [Example I-867] | < 100 nM |
| COc1ccccc1-c1cc(C2=CCCN(C(=O)CCn3ccnn3)C2)c(F)c2[nH]c(C(=O)N3CCN(c4cc(C)cn5ncnc45)CC3)cc12 [Example I-950] | < 100 nM |
| COc1ccncc1-c1cc(C2=CCCN(C(=O)CCn3ccnn3)C2)c(F)c2[nH]c(C(=O)N3CCN(c4ncc(Cl)cc4OC)CC3)cc12 [Example I-458] | < 100 nM |
| CCOc1ccc(-c2cc(C3=CCCN(C(=O)CCn4ccnn4)C3)c(F)c3[nH]c(C(=O)N4CCN(c5ncc(F)cc5OC)CC4)cc23)c(OC)c1 [Example I-661] | < 100 nM |
| COc1ccccc1-c1cc(C2=CCCN(C(=O)CCn3ccnn3)C2)c(F)c2[nH]c(C(=O)N3CCC(Nc4ncccn4)CC3)cc12 [Example I-849] | < 100 nM |
| COc1ccccc1-c1cc(C2=CCCN(C(=O)CCn3ccnn3)C2)c(F)c2[nH]c(C(=O)N3CCc4n[nH]cc4C3)cc12 [Example I-851] | < 100 nM |
| COc1cc(F)cnc1N1CCN(C(=O)c2cc3c(C4=CCCC4)cc(C4=CCCN(C(=O)CCn5ccnn5)C4)c(F)c3[nH]2)CC1 [Example I-1134] | < 100 nM |
| COc1ccncc1-c1cc(C2=CCCN(C(C)=O)C2)c(F)c2[nH]c(C(=O)N3CCN(c4ncc(F)cc4OC)CC3)cc12 [Example I-696] | > 100000 nM |
| Cc1cc(-c2cc(C3=CCCN(C(=O)CCn4ccnn4)C3)cc3cc(C(=O)N(C)C)oc23)n(C)n1 [Example I-1070] | < 100 nM |
| CCC/C=C/c1cc(C2=CCCN(C(=O)CCn3ccnn3)C2)c(F)c2[nH]c(C(=O)N3CCN(c4ncc(F)cc4OC)CC3)cc12 [Example I-677] | < 100 nM |
| COc1ccncc1-c1cc(C2=CCCN(C(=O)CCn3ccnn3)C2)c(F)c2[nH]c(C(=O)N3CCN(c4ccc(Cl)cc4OC)CC3)cc12 [Example I-450] | < 100 nM |
| COc1ccccc1-c1cc(C2=CCCN(C(=O)CCn3ccnn3)C2)c(F)c2[nH]c(C(=O)N3CCN(c4ccc[nH]c4=O)CC3)cc12 [Example I-1003] | < 100 nM |
| COc1ccccc1-c1cc(C2=CCCN(C(=O)CCn3ccnn3)C2)c(F)c2[nH]c(C(=O)N3CC4CN(c5ncccc5OC)CC4C3)cc12 (stereo not drawn) [Example I-1035] | 100 to 1000 nM |
| COc1ccccc1-c1cc(C2=CCCN(C(=O)CCn3ccnn3)C2)c(F)c2[nH]c(C(=O)N3CC4CN(c5ncccc5OC)CC4C3)cc12 (stereo not drawn) [Example I-912] | 100 to 1000 nM |
| COc1ccccc1-c1cc(C2=CCCN(C(C)=O)C2)c(F)c2[nH]c(C(=O)N3CCN(c4ncccc4OC)CC3)cc12 [Example I-553] | 100 to 1000 nM |
| COc1cc(F)cnc1N1CCN(C(=O)c2cc3c(-c4ccc5c(C)nn(C)c5c4)cc(C4=CCCN(C(=O)CCn5ccnn5)C4)c(F)c3[nH]2)CC1 [Example I-623] | < 100 nM |
| COc1ccncc1-c1cc(C2=CCCN(C(C)=O)C2)c(F)c2[nH]c(C(=O)N3CCN(c4ccccc4OC)CC3)cc12 [Example I-409] | > 100000 nM |

Other lines, results leading:

| IC50 | Compound |
| --- | --- |
| < 100 nM | CCc1ccccc1-c1cc(C2=CCCN(C(=O)CCn3cccn3)C2)c(F)c2[nH]c(C(=O)N3CCN(c4ncc(F)cc4OC)CC3)cc12 [Example I-662] |
| < 100 nM | COc1ccccc1-c1cc(C2=CCCN(C(=O)CCn3ccnn3)C2)c(F)c2[nH]c(C(=O)N3CCN(c4ncccn4)CC3)cc12 [Example I-863] |
| < 100 nM | COc1ccccc1-c1cc(C2=CCCN(C(=O)CCn3ccnn3)C2)c(F)c2[nH]c(C(=O)N3CCN(c4ccccc4F)CC3)cc12 [Example I-418] |
| < 100 nM | COc1ccccc1-c1cc(C2=CCCN(C(=O)CCn3ccnn3)C2)c(F)c2[nH]c(C(=O)N3CCN(c4ccnc(Nc5ccc(C#N)cc5)n4)CC3)cc12 [Example I-948] |
| < 100 nM | COc1ccccc1N1CCN(C(=O)c2cc3c(-c4cnccc4OC(F)F)cc(C4=CCCN(C(=O)CCn5ccnn5)C4)c(F)c3[nH]2)CC1 [Example I-426] |
| < 100 nM | CCOc1ccncc1-c1cc(C2=CCCN(C(=O)CCn3ccnn3)C2)c(F)c2[nH]c(C(=O)N3CCN(c4ncncc4OC)CC3)cc12 [Example I-1108] |
| < 100 nM | COc1cccnc1N1CCN(C(=O)c2cc3c(C4=C(C)CCCC4)cc(C4=CCCN(C(=O)CCn5ccnn5)C4)c(F)c3[nH]2)CC1 [Example I-569] |
| < 100 nM | COc1ccccc1-c1cc(C2=CCCN(C(=O)C3Cc4ccccc4CN3C=O)C2)cc2cc(C(=O)N(C)C)oc12 (stereo not drawn) [Example I-838] |
| < 100 nM | COc1ccccc1-c1cc(C2=CCCN(C(=O)CCn3ccnn3)C2)c(F)c2[nH]c(C(=O)N3CCN(C4CC4)CC3)cc12 [Example I-325] |
| < 100 nM | COc1ccccc1-c1cc(C2=CCCN(C(=O)CCn3ccnn3)C2)c(F)c2[nH]c(C(=O)N3CCN(c4nccc(C)c4OC)CC3)cc12 [Example I-415] |
| < 100 nM | COc1ccnc(N2CCN(C(=O)c3cc4c(-c5ccccc5OC)cc(C5=CCCN(C(=O)CCn6ccnn6)C5)c(F)c4[nH]3)CC2)c1 [Example I-900] |
| < 100 nM | COc1ccccc1-c1cc(C2=CCCN(C(=O)CCn3ccnn3)C2)c(F)c2[nH]c(C(=O)N3CCN(c4cnn5c4CCC5)CC3)cc12 [Example I-1013] |
| < 100 nM | COc1ccccc1-c1cc(C2=CCCN(C(=O)CCn3ccnn3)C2)c(F)c2[nH]c(C(=O)N3CCN(c4cn(C)c(=O)c5ccccc45)CC3)cc12 [Example I-905] |
| < 100 nM | COc1ccncc1-c1cc(C2=CCCN(C(=O)CCn3ccnn3)C2)c(F)c2[nH]c(C(=O)N3CCN(c4ncccc4OC4CC4)CC3)cc12 [Example I-456] |
| < 100 nM | COc1cc(F)cnc1N1CCN(C(=O)c2cc3c(-c4cccc5c4CC[C@H]5O)cc(C4=CCCN(C(=O)CCn5ccnn5)C4)c(F)c3[nH]2)CC1 [Example I-658] |
| < 100 nM | COc1cc(F)cnc1N1CCN(C(=O)c2cc3c(C4CN(C)C4)cc(C4=CCCN(C(=O)CCn5ccnn5)C4)c(F)c3[nH]2)CC1 [Example I-785] |
| < 100 nM | CN(C)C(=O)c1cc2c(F)c(C3=CCCN(C(=O)CCn4ccnn4)C3)ccc2o1 [Example I-1052] |
| < 100 nM | COc1ccccc1-c1cc(C2=CCCN(C(=O)CCn3ccnn3)C2)c(F)c2[nH]c(C(=O)N3CCN(Cc4ccccc4)CC3)cc12 [Example I-1202] |
| < 100 nM | COc1ccncc1-c1cc(C2=CCCN(C(=O)CCn3ccnn3)C2)c(F)c2[nH]c(C(=O)N3CCN(c4ccc(F)c(OC)n4)CC3)cc12 [Example I-444] |
| < 100 nM | COc1ccccc1-c1cc(C2=CCCN(C(=O)CCn3ccnn3)C2)c(F)c2[nH]c(C(=O)N3CCCN(c4ccc(F)cn4)CC3)cc12 [Example I-850] |
| < 100 nM | COc1ccccc1-c1cc(C2=CCCN(C(=O)CCn3ccnn3)C2)c(F)c2[nH]c(C(=O)N3CCN(c4cc(C)c(=O)n(C)c4)CC3)cc12 [Example I-1023] |
| < 100 nM | COc1ccccc1-c1cc(C2=CCCN(C(=O)CCn3ccnn3)C2)c(F)c2[nH]c(C(=O)N3CCN(c4ncc(F)cc4OC)CC3)cc12 [Example I-370] |
| < 100 nM | COc1ccccc1-c1cc(C2=CCCN(C(=O)CCn3ccnn3)C2)c(F)c2[nH]c(C(=O)N3CCN(c4cccc5cncn45)CC3)cc12 [Example I-936] |
| < 100 nM | COc1ccncc1-c1cc(C2=CCCN(C(=O)CCn3ccnn3)C2)c(F)c2[nH]c(C(=O)N3CCN(c4nnccc4OC)CC3)cc12 [Example I-467] |
